Measurements published in the NIST ThermoML archive (doi:10.1021/je200477s).
Numbers after ± are expanded uncertainties.

Assay: wn = mass fraction of the nth substance listed
Conditions: 101 kPa, Liquid, Pycnometric method

CCCCn1cc[n+](C)c1.COS(=O)(=O)[O-] [1-butyl-3-methylimidazolium methyl sulfate] + O
mass density [kg/m3]
Conditions	w1 = 0.1501	w1 = 0.2002	w1 = 0.2991	w1 = 0.4993	w1 = 0.6519	w1 = 0.8012	w1 = 0.8701	w1 = 0.9325	w1 = 1
293.15 K	1025.8 ± 0.4	1035.9 ± 0.4	1056.1 ± 0.5	1100.2 ± 0.6	1134.9 ± 0.8	1169.4 ± 1.1	1184.8 ± 1.2	1198.2 ± 1.3	1211.7 ± 1.5
295.15 K	1025.1 ± 0.3	1035.2 ± 0.4	1055.2 ± 0.4	1099 ± 0.6	1133.5 ± 0.8	1168 ± 1.1	1183.4 ± 1.2	1196.8 ± 1.4	1210.4 ± 1.5
297.15 K	1024.4 ± 0.4	1034.4 ± 0.4	1054.3 ± 0.4	1097.7 ± 0.6	1132.2 ± 0.8	1166.6 ± 1.1	1182.1 ± 1.2	1195.5 ± 1.4	1209.1 ± 1.5
299.15 K	1023.7 ± 0.4	1033.6 ± 0.4	1053.3 ± 0.4	1096.5 ± 0.6	1130.7 ± 0.8	1165.2 ± 1.1	1180.7 ± 1.2	1194.1 ± 1.4	1207.7 ± 1.5
301.15 K	1022.9 ± 0.4	1032.8 ± 0.4	1052.3 ± 0.4	1095.2 ± 0.6	1129.4 ± 0.8	1163.8 ± 1.1	1179.3 ± 1.2	1192.8 ± 1.4	1206.4 ± 1.5
303.15 K	1022.2 ± 0.3	1031.9 ± 0.4	1051.3 ± 0.4	1093.9 ± 0.6	1128 ± 0.8	1162.4 ± 1.1	1177.9 ± 1.2	1191.4 ± 1.4	1205.1 ± 1.5

O [water] + CCCCn1cc[n+](C)c1.COS(=O)(=O)[O-]
w2 = 0
Conditions	mass density [kg/m3]
293.15 K	998.3 ± 0.3
295.15 K	997.9 ± 0.3
297.15 K	997.4 ± 0.3
299.15 K	996.9 ± 0.3
301.15 K	996.3 ± 0.3
